Laboratory results taken from ChEMBL document CHEMBL4680246, “Design, synthesis and biological evaluation of novel O-carbamoyl ferulamide derivatives as multi-target-directed ligands for the treatment of Alzheimer's disease” (Eur J Med Chem, 2020).
Activity calls are given as the source filed them. The calls are words filed in the database; no cut-off is given here.

Key:
[1] = Effect on tau protein level in mouse HT22 cells transfected with pRK5-GFP-Tau plasmid assessed as fluorescence intensity at 5 uM by fluorescence microscopy (Rvb <= 40.9); assay type: functional, HT-22
[2] = Effect on tau protein level in mouse HT22 cells transfected with pRK5-GFP-Tau plasmid assessed as fluorescence intensity at 2.5 uM by fluorescence microscopy (Rvb <= 40.9); assay type: functional, HT-22
SH-SY5Y [3] = assay: Neuroprotective activity against amyloid beta (1 to 42)-induced cytotoxicity in human SH-SY5Y cells assessed as cell viability at 1 uM by MTT assay (reference value: 50.3%); assay type: functional; conditions: read-out: Activity
SH-SY5Y [4] = assay: Cytotoxicity against human SH-SY5Y cells up to 50 uM by MTT assay; assay type: cell-based
[5] = biological target: Amyloid-beta precursor protein (Homo sapiens) (UniProt P05067); assay: Disaggregation of self-induced amyloid beta (1 to 42) (unknown origin) preformed fibrils at 25 uM measured after 24 hrs by transmission electron microscopic analysis
Sequence of Amyloid-beta precursor protein (Homo sapiens) (P05067 whole entry): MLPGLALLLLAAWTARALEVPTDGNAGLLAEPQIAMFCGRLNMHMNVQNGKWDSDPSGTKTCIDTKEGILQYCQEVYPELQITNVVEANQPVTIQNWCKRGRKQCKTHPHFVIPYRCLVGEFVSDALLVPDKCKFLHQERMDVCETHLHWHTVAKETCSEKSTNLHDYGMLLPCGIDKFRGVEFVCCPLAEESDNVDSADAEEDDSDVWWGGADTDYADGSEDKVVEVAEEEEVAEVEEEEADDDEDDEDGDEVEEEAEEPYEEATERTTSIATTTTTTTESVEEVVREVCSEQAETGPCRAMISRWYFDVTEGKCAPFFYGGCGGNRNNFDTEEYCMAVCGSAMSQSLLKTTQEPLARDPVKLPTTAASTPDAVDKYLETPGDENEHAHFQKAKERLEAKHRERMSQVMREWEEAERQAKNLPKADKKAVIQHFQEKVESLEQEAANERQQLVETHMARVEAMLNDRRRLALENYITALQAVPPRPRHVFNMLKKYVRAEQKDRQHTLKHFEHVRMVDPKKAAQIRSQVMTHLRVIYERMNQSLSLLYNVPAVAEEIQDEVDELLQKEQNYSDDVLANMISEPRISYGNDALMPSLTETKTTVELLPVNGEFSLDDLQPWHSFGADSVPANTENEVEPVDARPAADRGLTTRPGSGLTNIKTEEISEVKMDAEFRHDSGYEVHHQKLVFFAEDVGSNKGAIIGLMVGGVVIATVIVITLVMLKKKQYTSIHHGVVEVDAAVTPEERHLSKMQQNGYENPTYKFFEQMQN

Homo sapiens = species on record: Homo sapiens; assay: Selectivity index, ratio of IC50 for recombinant human MAO-A to IC50 for recombinant human MAO-B
Cholinesterase = Cholinesterase (Homo sapiens, UniProt P06276); assay: Inhibition of human serum BuChE assessed as residual activity at 0.1 times IC50 using acetylcholine iodide as substrate measured after dilution by Ellman's method relative to control
Sequence of Cholinesterase (P06276 whole entry): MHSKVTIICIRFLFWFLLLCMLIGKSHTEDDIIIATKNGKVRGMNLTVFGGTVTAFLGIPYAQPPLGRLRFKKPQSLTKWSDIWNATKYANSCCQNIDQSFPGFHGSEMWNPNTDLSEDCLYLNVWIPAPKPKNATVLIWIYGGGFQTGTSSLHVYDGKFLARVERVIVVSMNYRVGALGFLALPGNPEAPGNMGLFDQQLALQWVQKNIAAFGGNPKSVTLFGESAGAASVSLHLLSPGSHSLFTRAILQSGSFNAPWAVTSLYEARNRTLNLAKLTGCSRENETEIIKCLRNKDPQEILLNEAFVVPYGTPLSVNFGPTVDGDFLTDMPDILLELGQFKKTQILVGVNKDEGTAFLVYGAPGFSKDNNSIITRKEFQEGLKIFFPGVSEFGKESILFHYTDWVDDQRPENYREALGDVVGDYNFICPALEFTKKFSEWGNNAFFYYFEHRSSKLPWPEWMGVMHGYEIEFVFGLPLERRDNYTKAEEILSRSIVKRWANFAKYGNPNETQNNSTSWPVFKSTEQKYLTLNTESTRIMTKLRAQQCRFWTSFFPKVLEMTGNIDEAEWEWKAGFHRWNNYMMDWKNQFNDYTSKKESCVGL

[6] = Acute toxicity in Kunming mouse assessed as damage in lung at 50 to 1000 mg/kg measured after 7 days; assay type: organism-based; conditions: in vivo, 168 h, dose 50-1000 mg/kg, time 7 day
[7] = Acute toxicity in Kunming mouse assessed as damage in spleen at 50 to 1000 mg/kg measured after 7 days; assay type: organism-based; conditions: in vivo, 168 h, dose 50-1000 mg/kg, time 7 day
[8] = Effect on tau protein level in mouse HT22 cells transfected with pRK5-GFP-Tau P301L plasmid assessed as fluorescence intensity at 20 uM by fluorescence microscopy (reference value: 33.6); assay type: functional, HT-22
[9] = Effect on APP protein level in mouse HT22 cells transfected with pEGFP-N1-APP plasmid assessed as fluorescence intensity at 10 uM by fluorescence microscopy (reference value: 33.2); assay type: functional, HT-22
HT-22 [10] = assay: Effect on APP protein level in mouse HT22 cells transfected with pEGFP-N1-APP plasmid assessed as reduction in fluorescence intensity by fluorescence microscopy; assay type: functional, cell-based
HT-22 [11] = assay: Down regulation of APP protein expression in mouse HT22 cells transfected with pEGFP-N1-APP plasmid at 10 to 20 uM by Western blot analysis; assay type: functional, cell-based; conditions: dose 10-20 µM
[12] = Permeability of compound by PAMPA-BBB assay; assay type: ADME; conditions: read-out: permeability
L02 = assay: Cytotoxicity against human LO2 cells assessed as reduction in cell viability at 25 uM by MTT assay; assay type: cell-based; conditions: l02, 25 µM
[13] = Toxicity in Zebrafish assessed as mortality at 12.5 ug/ml relative to control; set-up: species or system Danio rerio; conditions: in vivo, at 12.5 µg/mL
[14] = Toxicity in Zebrafish assessed as induction of yolk sac absorption delay at 1.04 ug/ml relative to control; set-up: species or system Danio rerio; conditions: in vivo, at 1.04 µg/mL
[15] = Toxicity in Zebrafish assessed as small or misshapen eyes at 6.25 ug/ml relative to control; set-up: species or system Danio rerio; conditions: in vivo, at 6.25 µg/mL
[16] = Toxicity in Zebrafish assessed as effect on kidney at 6.25 ug/ml relative to control; set-up: species or system Danio rerio; conditions: in vivo, at 6.25 µg/mL
[17] = Toxicity in Zebrafish assessed as change in body shape at 6.25 ug/ml relative to control; set-up: species or system Danio rerio; conditions: in vivo, at 6.25 µg/mL
[18] = Toxicity in AlCl3-induced Zebrafish model of Alzheimer's disease assessed as mortality at 10 ug/ml relative to control; set-up: species or system Danio rerio; conditions: in vivo, at 10 µg/mL
[19] = Toxicity in AlCl3-induced Zebrafish model of Alzheimer's disease assessed as mortality at 25 ug/ml relative to control; set-up: species or system Danio rerio; conditions: in vivo, at 25 µg/mL
[20] = Toxicity in AlCl3-induced Zebrafish model of Alzheimer's disease assessed as mortality at 50 ug/ml relative to control; set-up: species or system Danio rerio; conditions: in vivo, at 50 µg/mL
[21] = Toxicity in AlCl3-induced Zebrafish model of Alzheimer's disease assessed as mortality at 100 ug/ml relative to control; set-up: species or system Danio rerio; conditions: in vivo, at 100 µg/mL
[22] = Toxicity in AlCl3-induced Zebrafish model of Alzheimer's disease assessed as mortality at 200 ug/ml relative to control; set-up: species or system Danio rerio; conditions: in vivo, at 200 µg/mL
[23] = Toxicity in AlCl3-induced Zebrafish model of Alzheimer's disease; set-up: species or system Danio rerio; conditions: in vivo
Danio rerio [24] = species on record: Danio rerio; assay: Antialzheimer activity in AlCl3-induced Zebrafish model of Alzheimer's disease assessed as motility distance at 0.33 ug/ml (reference value: 5346 mm); assay type: functional; conditions: dose 0.33 µg/ml
Danio rerio [25] = species on record: Danio rerio; assay: Antialzheimer activity in AlCl3-induced Zebrafish model of Alzheimer's disease assessed as change in motility speed at 0.33 ug/ml (reference value: 1.08 mm/s); assay type: functional; conditions: dose 0.33 µg/ml
Danio rerio [26] = species on record: Danio rerio; assay: Antialzheimer activity in AlCl3-induced Zebrafish model of Alzheimer's disease assessed as increase in motility speed at […] relative to control; assay type: functional; conditions: dose 0.11 µg/ml
Danio rerio [27] = species on record: Danio rerio; assay: Antialzheimer activity in AlCl3-induced Zebrafish model of Alzheimer's disease assessed as increase in motility speed at 1 ug/ml relative to control; assay type: functional; conditions: dose 1 µg/ml
Danio rerio [28] = species on record: Danio rerio; assay: Protection against amyloid beta (1 to 42)-induced zebrafish model of vascular injury assessed as vascular injury rate at 1 ug/ml (reference value: 73.3%); assay type: functional; conditions: dose 1 µg/ml
Danio rerio [29] = species on record: Danio rerio; assay: Protection against amyloid beta (1 to 42)-induced zebrafish model of vascular injury assessed as reduction in vascular injury at […] relative to control; assay type: functional; conditions: dose 0.11 µg/ml
[30] = Acute toxicity in Kunming mouse assessed as lethargy at 250 to 1000 mg/kg; assay type: organism-based; conditions: in vivo, dose 250-1000 mg/kg
[31] = Acute toxicity in Kunming mouse assessed as piloerection at 250 to 1000 mg/kg measured after 4 hrs; assay type: organism-based; conditions: in vivo, dose 250-1000 mg/kg
[32] = Effect on spontaneous alteration behavior in mouse assessed as change in total arm entry at 5 to 20 mg/kg by Y-maze test; assay type: ADME, organism-based; conditions: in vivo, dose 5-20 mg/kg
Mus musculus [33] = assay: Improvement in cognitive impairment in scopolamine-induced mouse model of amnesia assessed as change in spontaneous alteration at 20 mg/kg by Y-maze test (reference value: 40.8%); assay type: functional
Mus musculus [34] = assay: Improvement in cognitive impairment in scopolamine-induced mouse model of amnesia assessed as increase in spontaneous alteration at 5 to 10 mg/kg by Y-maze test; assay type: functional, organism-based; conditions: dose 5-10 mg/kg
Mus musculus [35] = assay: Improvement in brain cholinergic activity in scopolamine-induced mouse model of amnesia assessed as reduction in AChE vitality at 5 to 10 mg/kg; assay type: functional, organism-based; conditions: dose 5-10 mg/kg
Mus musculus [36] = assay: Improvement in brain cholinergic activity in scopolamine-induced mouse model of amnesia assessed as change in ChAT vitality at 20 mg/kg (reference value: 28.8 U/g); assay type: functional

CCN(C)C(=O)Oc1ccc(/C=C/C(=O)N2CCc3ccccc3C2)cc1OC
Flu intensity [1]: 32.6
Flu intensity [2]: 32.6
viability at 1 µM (SH-SY5Y [3]): 68.1%
Activity (SH-SY5Y [4]): Non-Toxic
Activity [5]: Active
Ratio IC50 (Homo sapiens): 3
Activity (Cholinesterase): 47.1%
Activity [6]: Non-Toxic
Activity [7]: Non-Toxic
Flu intensity [8]: 17.9
Flu intensity [9]: 13.3
Activity (HT-22 [10]): Dose-dependent effect
Activity (HT-22 [11]): Active
Papp [12]: 21.4 ×10⁻⁶ cm/s
Activity (L02): Non-Toxic
mortality at 12.5 ug/ml [13]: 100%
Activity [14]: 13.3%
Activity [15]: 26.7%
Activity [16]: 23.3%
Activity [17]: 53.3%
mortality at 10 ug/ml [18]: 0%
mortality at 25 ug/ml [19]: 100%
mortality at 50 ug/ml [20]: 100%
mortality at 100 ug/ml [21]: 100%
mortality at 200 ug/ml [22]: 100%
MTD [23]: 1 µg/mL
Activity (Danio rerio [24]): 6763 mm
Activity (Danio rerio [25]): 2.06 millimeter/sec
Efficacy (Danio rerio [26]): 57.3%
Efficacy (Danio rerio [27]): 86.3%
Activity (Danio rerio [28]): 53.3%
Efficacy (Danio rerio [29]): -9.1%
Activity [30]: Toxic
Activity [31]: Non-Toxic
Activity [32]: Non-Toxic
Activity (Mus musculus [33]): 61.6%
Activity (Mus musculus [34]): Active
Activity (Mus musculus [35]): Active
Activity (Mus musculus [36]): 54.1 U/g
